The values that follow come from patent US7199130B2, “Substituted 5,6,6a, 11b-tetrahydro-7-oxa-5-aza-benzo[c]fluorene-6-carboxylic acid compounds as NMDA-antagonists” (Gruenenthal GmbH, priority 2001, dated 2007).

Structures are written as SMILES.

For test [1], the system named is formaldehyde-induced nociception. Put plainly: Formaldehyde test, rat (second phase). The format is in vivo. Conditions: iv, male Sprague-Dawley rats, second (late) phase of formaldehyde test, pain rate vs vehicle control. The procedure:
The investigations to determine the antinociceptive action of the compounds according to the invention of the formula I were carried by the formaldehyde test on male rats (Sprague-Dawley, 150–170 g). In the formaldehyde test, a distinction is drawn between the first (early) phase (0–15 min after formaldehyde injection) and the second (later) phase (15–60 min after formaldehyde injection) (D. Dubuisson, S. G. Dennis, Pain 4, 161–174 (1977)). […]
A nociceptive reaction was induced in the freely mobile test animals by a single, subcutaneous formaldehyde injection (50 μl, 5%) into the dorsal side of the rear hind paw, the reaction being classed according to one of the following behavioral parameters: lifting and holding up the affected paw (score 1), shaking or twitching (score 2), licking and biting (score 3). The differential behavior induced by the formaldehyde injection was recorded by observing the animals in the late phase of the formaldehyde test and assigned a variable weighting in the evaluation. Normal behavior, in which the animal places an even load on all four paws, was recorded as a score of 0. […] The nociceptive behavior was calculated as a “pain rate” (PR). […] On the basis of the calculated PR values, the effect of the substance was determined as a percentage change relative to the control. […]

The target of test [2] is T1, glycine-binding site of the NMDA receptor channel (Rattus norvegicus, UniProt P35439).
T1 construct: from tissue; host or cells: rat brain cortex and hippocampus membrane homogenate (male Wistar)
The test is described as follows: Receptor binding (glycine-binding site of the NMDA receptor channel), displacement of (3H)-MDL 105.519. As for the experimental part:
Receptor Binding (Glycine-Binding Site of the NMDA Receptor Channel)
The investigation for determining the affinity of the compounds according to the invention of the formula I towards the glycine-binding site of the NMDA receptor channel was performed on brain membrane homogenates (homogenate of the cortex and hippocampus area from male rat brain, Wistar strain) [B. M. Baron, B. W. Siegel, B. L. Harrison, R. S. Gross, C. Hawes and P. Towers, Journal of Pharmacology and Experimental Therapeutics, vol. 279, p. 62, 1996].
To this end, the cortex and hippocampus were dissected out of freshly harvested rat brains and homogenized with ice cooling in 5 mmol/l of TRIS-acetate buffer, 0.32 mol/l of sucrose, pH 7.4 (10 ml/g fresh weight) using a Potter homogenizer (Braun/Melsungen, 10 piston strokes at 500 rpm) and then centrifuged for 10 minutes at 1,000 g and 4° C. […] This membrane homogenate was used in the receptor binding test in a quantity of 100 μl per 1 ml batch (0.1 mg of protein/ml in the final batch). […] The level of non-specific binding was determined in the presence of 1 mmol/l of glycine.
In further batches, the compounds according to the invention were added in concentration series and the displacement of the radioactive ligand from its specific binding at the glycine-binding site of the NMDA receptor channel was determined. […]

For orientation: ED50 means the dose at which the effect has come halfway, by size or by number of responders. As a reminder, the Ki is the dissociation constant of the complex between target and ligand, obtained from inhibition or displacement. As for `O=C(O)C1Nc2cc(Cl)cc(Cl)c2C2c3ccccc3OC12` (stereo not drawn) [Example 1, 1,3-Dichloro-5,6,6a,11b-tetrahydro-7-oxa-5-aza-benzo [c]fluorene-6-carboxylic acid], in test [1], the ED50 worked out at 7.27 mg/kg. Besides, in test [2] (10 μmol/l of substance, displacement of (3H)-MDL 105.519 from specific binding, rat brain membranes), the “Glycine-binding site of the NMDA receptor channel Displacement” value worked out at 100%. In addition, the affinity in test [2] (rat cortex and hippocampus membrane homogenate, ligand 1 nmol/l (3H)-MDL 105.519, converted from IC50 by Cheng-Prussoff, mean of three independent tests) corresponds to a Ki of 53 nM.
